According to patent publication US20240246934A1, “QUINAZOLINE-BASED COMPOUND, COMPOSITION, AND APPLICATION OF QUINAZOLINE-BASED COMPOUND” (BEIJING SCITECH-MQ PHARMACEUTICALS LIMITED, priority 2021, published 2024):
Like-named read-outs stand apart in the source and are kept apart here.

Experiments:
EGFR^WT kinase = EGFR^WT kinase (Homo sapiens, UniProt P00533); experiment: EGFR^WT kinase assay (ULight/PT66 TR-FRET); type: biochemical
Summary of the method: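 Enzyme preincubated 5 min with compound (11-point 3-fold series, duplicate), then ULight-JAK-1 (Tyr1023) peptide and ATP added at 4× stocks of 400 nM and 600 μM; 120 min reaction at room temperature. PT66 antibody TR-FRET read after 60 min; IC50 fitted from inhibition rates.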

HER2 kinase = target: T1, HER2 kinase (Homo sapiens, UniProt P04626); experiment: HER2 kinase assay (ULight/PT66 TR-FRET); type: biochemical
T1 construct: purchased Carna Biosciences 08-016
Summary of the method: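 HER2 kinase preincubated 5 min with compounds (11-point 3-fold series, duplicates), then reacted 120 min at room temperature with ATP and ULight-poly GT peptide, each prepared at 4× working concentration (40 μM ATP, 400 nM substrate, 40 nM kinase). PT66 antibody added for 60 min, TR-FRET read; IC50 from inhibition curves.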

[1] = target: Ba/F3 EGFR D770_N771insSVD cells (Homo sapiens, UniProt P00533, DUP768-770, cells depend on it); experiment: Inhibition of cell proliferation, CTG method, Ba/F3 EGFR D770_N771insSVD; type: cell-based; conditions: 72 hours, read-out: Ba/F3 EGFR D770_N771insSVD IC50
Description: The present application examined the in vitro anti-proliferative activity of the compounds of the present disclosure against in vitro cultured BT474, NCI-N87, Ba/F3-EGFR-VIII and Ba/F3 HER2 A775_G776insYVMA and Ba/F3 EGFR D770_N771insSVD cell lines by CTG method.
Reagents and consumables: RPMI1640 (ThermoFisher, Cat. No. C11875500BT); fetal bovine serum (Hyclone, Cat. No. SV30087.03); 0.25% trypsin-EDTA (ThermoFisher, Cat. No. 25200-072); penicillin-streptomycin (Hyclone, Cat. No. SV30010); DMSO (Amresco, Cat. No. 0231-500ML); CTG assay kit (Promega, Cat. No. G924C); 96-well plate (Corning, Cat. No. 3603); multifunctional plate reader (Perkin Elmer, Cat. No. Envision)
Cell lines: BT474 (from the cell bank of Chinese Academy of Sciences), NCI-N87 (from ATCC), Ba/F3-EGFR-VIII, Ba/F3 HER2 A775_G776insYVMA and Ba/F3 EGFR D770_N771insSVD (all from KYinno Biotechnology (Beijing) Co., Ltd.); all of the above cells were cultured with RPMI1640 medium containing 10% fetal bovine serum, 100 U/mL penicillin, and 100 μg/mL streptomycin in the culture process.
1. The assay compound was dissolved with DMSO to form a stock solution and a gradient dilution was performed, followed by dilution with the corresponding medium to obtain a solution with 5-fold working concentration.
2. Cells in logarithmic growth phase were adjusted to specific cell densities by dilution with culture medium, and 80 μL of cell suspension was added to a 96-well plate, such that plating densities of cells of BT474, NCI-N87, Ba/F3-EGFR-VIII, Ba/F3 HER2 A775_G776insYVMA and Ba/F3 EGFR D770_N771insSVD were all 3000 cells/well. The cells of Ba/F3-EGFR-VIII, Ba/F3 HER2 A775_G776insYVMA and Ba/F3 EGFR D770_N771insSVD were used directly in the next step (treatment with compound), whereas the BT474 and NCI-N87 needed to be cultured overnight in a 37° C., 5% carbon dioxide gas incubator to adhere to the wall, and then treated with compounds.
3. 20 μL of compound solution was added to each well of the 96-well plate that had been inoculated with cells. The highest concentration of the assayed compound was 10 μM, 4-fold serial dilution, a total of 9 concentrations, and duplicate wells. A control group without compound was also set up.
4. The cells were cultured for another 72 hours, and then cell viability was detected by CTG assay kit. Signal values were read with a multifunctional plate reader (Perkin Elmer). GraphPad Prism software was used to create a dose-response curve and IC50 was calculated.

[2] = target: Ba/F3 HER2 A775_G776insYVMA cells (Homo sapiens, UniProt P04626, DUP772-775, cells depend on it); experiment: Inhibition of cell proliferation, CTG method, Ba/F3 HER2 A775_G776insYVMA; type: cell-based
Summary of the method: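 Ba/F3 HER2 A775_G776insYVMA cells in RPMI1640 with 10% FBS were plated at 3000 cells/well and treated directly with compound (top 10 μM, 4-fold, 9 concentrations, duplicates).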

[3] = system: Ba/F3 ERBB2 A775_G776insYVMA; experiment: Efficacy in nude mouse tumor-bearing model of Ba/F3 ERBB2 A775_G776insYVMA; type: in vivo, BALB/c nude mice; conditions: for T/C (%): 30 mg/kg, QD×14, PO, day 14; for effect on tumor size (in words): 30 mg/kg PO
Protocol: In this assay, some compounds of the application were orally administered to a nude mouse tumor-bearing model of Ba/F3 ERBB2 A775_G776insYVMA to study the effect of the compounds of the application on tumor growth.
Preparation of the assay compound: an appropriate weight of the compound to be assayed was weighed, and completely dissolved in an appropriate volume of vehicle (DMSO). The mixture was vortexed or sonicated. Then an appropriate amount of Solutol was added and mixed well. Finally, sterilized drinking water was added and the mixture was mixed by stirring or vortexing to obtain a homogeneous solution or suspension.
Method: All the assays were authorized and agreed by the Animal Welfare Committee. Ba/F3 ERBB2 A775_G776insYVMA in a logarithmic growth period was inoculated subcutaneously into the right back of immunodeficient nude mice (BALB/c nude, female, 6-7 weeks of age, body weight 18±2 g) with 4×10^6 cells/rat. After the tumor grew to 150-200 mm^3, the animals were randomly divided into a treatment group and a control group. For the treatment group, a solution of each assay compound was given, and for the control group, a vehicle solution without the assay compound was given. Both of the treatment group and the control group were administered once a day for about 2 weeks. The dose of each assay article was 30 mg/kg (in terms of effective compound concentration), and the assay compounds were all prepared freshly for use. During the assay, the diameter of loaded tumors was measured twice a week, and the mice were weighed at the same time. The tumor volume (TV) was calculated by the formula: TV=½×a×b^2, where a and b denote length and width, respectively. Relative tumor volume (RTV) was calculated based on the measured results by the formula: RTV=Vt/V0, where V0 is the tumor volume measured at grouping and administration and Vt is the tumor volume at each measurement. The evaluation index of antitumor activity was the relative tumor proliferation rate T/C (%) calculated by the formula: T/C (%)=(TRTV/CRTV)×100%, TRTV: RTV of the administration group; CRTV: RTV of the control group. T and C denote the average tumor volume at a certain time point in the administration group and the control group, respectively.

[4] = Pharmacokinetics in SD rats, single intravenous injection and oral administration; type: in vivo, SD rat; conditions: for AUC(0-inf) / AUC(0-t) / Vd / half-life / bioavailability / Cmax / Tmax: SD, rat; for bioavailability: PO 10 mg/kg vs IV 3 mg/kg, read-out: F % (bioavailability)
Protocol: In this assay, the pharmacokinetic characteristics of the compounds of the present application were assayed after administration of some of the compounds of the present application to SD rats by single oral administration and intravenous injection. 1. […] The mixture was stirred, vortexed and/or sonicated. Once a solution was obtained, the vehicle was gradually added to a final volume to reach the target concentration. The solution was vortexed, and sonicated to obtain a homogeneous solution. The solution was filtered through a 0.22 μm PVDF membrane. 2. […] The mixture was stirred, vortexed and/or sonicated. Once a solution was obtained, the vehicle was gradually added to a final volume to reach the target concentration. The solution was vortexed, and sonicated to obtain a homogeneous solution. […] Meanwhile, the IV group was not fasted and the PO group was fasted overnight (>12 hrs) and given food 2 hrs after drug administration. All animals had free access to water. The dosing regimen and pharmacokinetic sampling regimen are given in Table 6 and Table 7 below, respectively. […] Rats were administered according to the above regimen, and blood and brain tissue samples were collected and processed at predetermined time points (collection and processing were performed according to conventional methods in the art). […] The supernatant was diluted 2-fold with ultra-pure water, and the samples were analyzed by LC/MS. Pharmacokinetic parameters was calculated using WinNonlin software. The following pharmacokinetic parameters was calculated from the plasma drug concentration-time data: CL (clearance); Vd (apparent volume of distribution); T1/2 (elimination half-life time); Cmax (peak concentration); Tmax (time to peak); AUC (area under plasma drug concentration-time curve); MRT (mean retention time); F % (bioavailability).

[5] = Brain tissue and whole blood concentration in SD rats after oral administration; type: in vivo; conditions: rat, PO 10 mg/kg, 2 h after administration; for Kp at 2 h: brain / whole blood, read-out: Brain tissue/blood ratio
Protocol: In this assay, the pharmacokinetic characteristics of the compounds of the present application were assayed after administration of some of the compounds of the present application to SD rats by single oral administration and intravenous injection.
2. […] The mixture was stirred, vortexed and/or sonicated. Once a solution was obtained, the vehicle was gradually added to a final volume to reach the target concentration. The solution was vortexed, and sonicated to obtain a homogeneous solution.
Meanwhile, the IV group was not fasted and the PO group was fasted overnight (>12 hrs) and given food 2 hrs after drug administration. All animals had free access to water. The dosing regimen and pharmacokinetic sampling regimen are given in Table 6 and Table 7 below, respectively.
Rats were administered according to the above regimen, and blood and brain tissue samples were collected and processed at predetermined time points (collection and processing were performed according to conventional methods in the art).
The supernatant was diluted 2-fold with ultra-pure water, and the samples were analyzed by LC/MS.
Brain tissues were weighed and homogenized by adding 4-fold homogenizing solution (acetonitrile/water=1/1 v/v). […] The supernatant was diluted 2-fold with ultra-pure water, and the samples were analyzed by LC/MS.

[6] = 72 hours, read-out: Ba/F3 HER2 A775-G776insYVMA IC50
[7] = whole blood, NA: Exposure was too low to be counted
[8] = whole blood, PO 10 mg/kg, NA: Exposure was too low to be counted
[9] = whole blood, read-out: Blood drug concentration
[10] = brain, NA: Exposure was too low to be counted, read-out: Brain tissue concentration
[11] = in vivo, PO 10 mg/kg, NA: Exposure was too low to be counted

Chain of Ba/F3 HER2 A775_G776insYVMA cells (P04626 with tags, fused parts or gaps DUP772-775): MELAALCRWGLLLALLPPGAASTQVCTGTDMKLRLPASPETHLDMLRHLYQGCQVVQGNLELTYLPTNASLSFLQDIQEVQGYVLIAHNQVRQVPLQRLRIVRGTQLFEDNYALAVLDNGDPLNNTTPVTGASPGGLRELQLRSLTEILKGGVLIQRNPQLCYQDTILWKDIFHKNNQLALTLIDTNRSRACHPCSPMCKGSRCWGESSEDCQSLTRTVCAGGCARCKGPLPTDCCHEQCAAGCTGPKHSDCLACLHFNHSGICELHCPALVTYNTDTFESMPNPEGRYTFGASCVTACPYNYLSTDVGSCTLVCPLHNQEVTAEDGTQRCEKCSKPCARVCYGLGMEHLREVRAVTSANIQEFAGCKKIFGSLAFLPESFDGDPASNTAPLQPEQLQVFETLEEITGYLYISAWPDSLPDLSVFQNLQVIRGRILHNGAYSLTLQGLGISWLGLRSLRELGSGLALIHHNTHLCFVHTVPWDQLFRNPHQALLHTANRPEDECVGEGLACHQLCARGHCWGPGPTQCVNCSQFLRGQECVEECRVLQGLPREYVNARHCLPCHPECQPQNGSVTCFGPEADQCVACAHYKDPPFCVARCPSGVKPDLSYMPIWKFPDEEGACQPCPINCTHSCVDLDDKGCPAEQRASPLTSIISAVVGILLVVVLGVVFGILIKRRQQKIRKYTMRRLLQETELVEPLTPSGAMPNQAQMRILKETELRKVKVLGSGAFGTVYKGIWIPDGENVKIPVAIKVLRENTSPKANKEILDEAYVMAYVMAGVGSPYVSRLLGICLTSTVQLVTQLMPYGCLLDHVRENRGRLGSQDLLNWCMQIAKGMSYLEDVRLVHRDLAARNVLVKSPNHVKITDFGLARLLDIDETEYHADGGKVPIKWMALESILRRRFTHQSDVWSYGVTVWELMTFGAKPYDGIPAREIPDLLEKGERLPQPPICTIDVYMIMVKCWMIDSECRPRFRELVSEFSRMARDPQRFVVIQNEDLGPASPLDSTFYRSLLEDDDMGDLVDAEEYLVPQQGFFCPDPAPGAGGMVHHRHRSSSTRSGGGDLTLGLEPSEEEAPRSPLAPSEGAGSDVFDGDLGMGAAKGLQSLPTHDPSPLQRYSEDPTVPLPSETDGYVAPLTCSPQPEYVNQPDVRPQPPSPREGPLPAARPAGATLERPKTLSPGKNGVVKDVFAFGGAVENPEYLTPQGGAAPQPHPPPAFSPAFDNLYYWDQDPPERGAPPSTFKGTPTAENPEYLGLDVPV
T1 sequence (P04626 23-1255): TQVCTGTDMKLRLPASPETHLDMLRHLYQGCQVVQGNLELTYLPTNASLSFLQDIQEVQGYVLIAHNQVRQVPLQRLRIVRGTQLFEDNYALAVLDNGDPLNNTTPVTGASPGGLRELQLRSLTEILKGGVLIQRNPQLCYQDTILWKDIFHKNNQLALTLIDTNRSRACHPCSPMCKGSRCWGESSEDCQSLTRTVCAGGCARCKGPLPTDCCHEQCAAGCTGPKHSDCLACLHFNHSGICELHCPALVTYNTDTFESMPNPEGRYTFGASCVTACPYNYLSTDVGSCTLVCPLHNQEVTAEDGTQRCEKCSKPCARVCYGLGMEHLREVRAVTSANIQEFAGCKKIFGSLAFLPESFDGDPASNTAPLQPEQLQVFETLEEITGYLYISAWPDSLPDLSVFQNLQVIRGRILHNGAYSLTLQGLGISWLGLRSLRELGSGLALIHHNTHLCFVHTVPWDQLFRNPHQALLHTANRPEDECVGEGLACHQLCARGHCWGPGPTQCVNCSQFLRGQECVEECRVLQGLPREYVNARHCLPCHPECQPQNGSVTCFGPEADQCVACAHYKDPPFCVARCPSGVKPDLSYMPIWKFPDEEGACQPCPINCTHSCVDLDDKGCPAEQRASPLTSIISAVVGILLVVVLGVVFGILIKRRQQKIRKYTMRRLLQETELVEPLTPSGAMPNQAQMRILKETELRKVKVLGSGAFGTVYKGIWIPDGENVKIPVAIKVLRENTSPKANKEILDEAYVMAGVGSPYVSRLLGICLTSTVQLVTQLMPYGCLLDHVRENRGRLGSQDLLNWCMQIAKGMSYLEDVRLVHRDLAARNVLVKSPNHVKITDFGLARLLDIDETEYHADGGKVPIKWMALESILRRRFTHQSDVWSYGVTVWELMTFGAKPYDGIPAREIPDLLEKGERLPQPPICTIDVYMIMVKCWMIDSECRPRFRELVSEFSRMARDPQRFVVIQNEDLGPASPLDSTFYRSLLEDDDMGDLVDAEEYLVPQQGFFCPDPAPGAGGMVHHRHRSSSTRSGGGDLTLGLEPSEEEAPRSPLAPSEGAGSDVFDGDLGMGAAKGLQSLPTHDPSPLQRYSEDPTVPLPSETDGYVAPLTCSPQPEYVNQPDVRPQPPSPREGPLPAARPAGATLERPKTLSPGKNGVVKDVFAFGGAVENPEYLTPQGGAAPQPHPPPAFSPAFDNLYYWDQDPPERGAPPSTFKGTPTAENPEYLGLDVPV
Chain of EGFR^WT kinase (P00533 25-1210): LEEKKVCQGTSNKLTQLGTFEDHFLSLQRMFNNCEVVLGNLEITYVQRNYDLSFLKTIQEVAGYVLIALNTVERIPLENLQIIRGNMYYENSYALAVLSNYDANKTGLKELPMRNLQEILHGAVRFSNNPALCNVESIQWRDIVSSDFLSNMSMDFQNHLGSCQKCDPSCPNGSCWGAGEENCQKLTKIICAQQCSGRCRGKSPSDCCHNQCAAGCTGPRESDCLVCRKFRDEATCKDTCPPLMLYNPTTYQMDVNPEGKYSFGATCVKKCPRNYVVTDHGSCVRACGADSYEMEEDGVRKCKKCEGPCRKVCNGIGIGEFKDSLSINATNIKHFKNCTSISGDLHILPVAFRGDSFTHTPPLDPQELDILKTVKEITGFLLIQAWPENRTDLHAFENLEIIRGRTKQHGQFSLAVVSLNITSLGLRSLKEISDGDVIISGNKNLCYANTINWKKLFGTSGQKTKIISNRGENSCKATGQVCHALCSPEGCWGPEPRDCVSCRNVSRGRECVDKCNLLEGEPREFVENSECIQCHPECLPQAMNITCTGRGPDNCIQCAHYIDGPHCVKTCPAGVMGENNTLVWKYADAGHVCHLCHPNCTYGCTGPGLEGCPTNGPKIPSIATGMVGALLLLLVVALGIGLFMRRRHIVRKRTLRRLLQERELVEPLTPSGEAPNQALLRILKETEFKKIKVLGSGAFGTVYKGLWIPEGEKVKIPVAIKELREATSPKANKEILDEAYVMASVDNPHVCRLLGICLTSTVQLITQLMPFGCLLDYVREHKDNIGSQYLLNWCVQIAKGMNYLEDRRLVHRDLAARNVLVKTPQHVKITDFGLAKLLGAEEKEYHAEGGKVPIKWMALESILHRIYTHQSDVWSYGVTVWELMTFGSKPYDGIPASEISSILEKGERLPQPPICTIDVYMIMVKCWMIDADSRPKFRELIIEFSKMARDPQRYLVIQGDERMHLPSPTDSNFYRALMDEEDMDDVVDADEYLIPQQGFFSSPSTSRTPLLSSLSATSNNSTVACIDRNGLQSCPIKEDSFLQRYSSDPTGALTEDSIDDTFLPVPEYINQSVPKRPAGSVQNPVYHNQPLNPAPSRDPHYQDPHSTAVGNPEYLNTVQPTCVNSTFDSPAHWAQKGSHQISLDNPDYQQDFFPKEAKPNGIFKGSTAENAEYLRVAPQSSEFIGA
Chain of Ba/F3 EGFR D770_N771insSVD cells (P00533 with tags, fused parts or gaps DUP768-770): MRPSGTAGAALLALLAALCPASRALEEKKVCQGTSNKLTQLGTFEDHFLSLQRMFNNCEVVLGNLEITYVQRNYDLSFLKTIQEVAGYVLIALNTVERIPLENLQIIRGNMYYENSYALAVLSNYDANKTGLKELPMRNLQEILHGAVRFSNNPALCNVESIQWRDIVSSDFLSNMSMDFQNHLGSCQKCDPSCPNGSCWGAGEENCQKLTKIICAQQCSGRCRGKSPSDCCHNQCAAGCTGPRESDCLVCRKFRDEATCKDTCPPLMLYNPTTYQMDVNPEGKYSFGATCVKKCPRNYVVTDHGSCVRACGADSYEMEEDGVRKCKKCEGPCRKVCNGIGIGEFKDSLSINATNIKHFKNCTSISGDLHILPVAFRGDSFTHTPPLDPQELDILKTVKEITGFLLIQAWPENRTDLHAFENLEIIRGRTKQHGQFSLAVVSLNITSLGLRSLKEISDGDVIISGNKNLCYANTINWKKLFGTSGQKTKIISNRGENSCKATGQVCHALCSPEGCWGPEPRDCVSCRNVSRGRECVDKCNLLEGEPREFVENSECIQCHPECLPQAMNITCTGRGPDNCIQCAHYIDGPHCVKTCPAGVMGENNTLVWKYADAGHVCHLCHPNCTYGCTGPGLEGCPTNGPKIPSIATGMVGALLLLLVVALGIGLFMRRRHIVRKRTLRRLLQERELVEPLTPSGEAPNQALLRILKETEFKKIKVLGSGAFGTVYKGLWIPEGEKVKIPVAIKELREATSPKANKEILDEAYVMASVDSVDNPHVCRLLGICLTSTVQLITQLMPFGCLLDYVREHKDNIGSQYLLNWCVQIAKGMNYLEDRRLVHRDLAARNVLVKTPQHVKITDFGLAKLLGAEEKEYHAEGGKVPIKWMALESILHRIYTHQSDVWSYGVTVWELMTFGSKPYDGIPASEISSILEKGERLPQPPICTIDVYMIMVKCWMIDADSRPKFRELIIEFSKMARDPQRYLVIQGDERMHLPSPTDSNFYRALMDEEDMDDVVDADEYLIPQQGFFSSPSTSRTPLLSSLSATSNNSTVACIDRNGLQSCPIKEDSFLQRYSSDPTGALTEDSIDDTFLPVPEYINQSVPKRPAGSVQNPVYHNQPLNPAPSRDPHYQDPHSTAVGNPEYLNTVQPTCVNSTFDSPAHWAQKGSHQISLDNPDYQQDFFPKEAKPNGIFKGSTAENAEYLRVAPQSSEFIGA

## CN1CCC[C@@H]1/C=C/C(=O)Nc1ccc2ncnc(Nc3ccc(OCc4ccccn4)c(Cl)c3)c2c1OCCO [Example 6, (R,E)-N-(4-((3-chloro-4-(pyridin-2-ylmethoxy)phenyl)amino)-5-(2-hydroxyethoxy)quinazolin-6-yl)-3-(1-methylpyrrolidin-2-yl)acrylamide]
EGFR^WT kinase
  IC50: < 10 nM
HER2 kinase
  IC50: < 10 nM
[1]
  GI50: 5 to 10 nM
[2]; [6]
  GI50: 1 to 5 nM

## COc1c(NC(=O)/C=C/[C@H]2CCCN2C(C)C)ccc2ncnc(Nc3ccc(OCc4ccccn4)c(Cl)c3)c12 [Example 24, (R,E)-N-(4-((3-chloro-4-(pyridin-2-ylmethoxy)phenyl)amino)-5-methoxyquinazolin-6-yl)-3-(1-isopropylpyrrolidin-2-yl)acrylamide]
EGFR^WT kinase
  IC50: 100 to 1000 nM
HER2 kinase
  IC50: < 10 nM
[3]
  T/C (%): 12.4%
[2]; [6]
  GI50: 1 to 5 nM
[4]; IV 3 mg/kg
  Cl_obs: 32.2 ± 0.5 mL/min/kg
[4]; whole blood, IV 3 mg/kg
  AUC(0-inf): 1550 ± 23 ng·h/mL
  AUC(0-t): 1510 ± 26 ng·h/mL
  Vd: 14 ± 1.3 L/kg
  half-life: 5.01 ± 0.45 h
[4]; [7]
  bioavailability: 25 ± 11.2%
[4]; [8]
  AUC(0-inf): 1470 ± 655 ng·h/mL
  AUC(0-t): 1260 ± 561 ng·h/mL
  Cmax: 86.3 ± 32.7 ng/mL
  Tmax: 5.33 ± 2.89 h
  half-life: 7.81 ± 3.71 h

## CCOc1cc2ncc(C#N)c(Nc3ccc(OCc4ccccn4)c(Cl)c3)c2cc1NC(=O)/C=C/CN(C)C [NERATINIB, neratinib, reference compound]
[5]; [9]
  concentration at 2 h: 440 ng/mL
[5]
  Kp at 2 h: 0.0366
[5]; [10]
  concentration at 2 h: 14.4 ng/g
[3]
  effect on tumor size (in words): still remain significant growth
  T/C (%): 45.9%
[2]; read-out: Ba/F3 HER2 A775-G776insYVMA IC50, 72 hours
  GI50: 10 to 100 nM
[4]; IV 3 mg/kg
  Cl_obs: 20.8 ± 2.0 mL/min/kg
[4]; in vivo, IV 3 mg/kg
  AUC(0-t): 2390 ± 267 ng·h/mL
  half-life: 4.38 ± 0.55 h
[4]; [11]
  AUC(0-t): 1470 ± 637 ng·h/mL
  Cmax: 201 ± 66 ng/mL
  half-life: 2.97 ± 0.27 h
[4]; whole blood, IV 3 mg/kg
  AUC(0-inf): 2420 ± 252 ng·h/mL
  Vd: 7.94 ± 1.71 L/kg
[4]; [7]
  bioavailability: 18.2 ± 7.89%
[4]; [8]
  AUC(0-inf): 1470 ± 638 ng·h/mL

## CCOc1cc2ncc(C#N)c(Nc3ccc(OCc4ccccn4)c(Cl)c3)c2cc1NC(=O)/C=C/[C@H]1CCCN1C [PYROTINIB, pyrotinib, reference compound]
[5]; [9]
  concentration at 2 h: 884 ng/mL
[5]
  Kp at 2 h: 0.0291
[5]; [10]
  concentration at 2 h: 25.8 ng/g
[3]
  effect on tumor size (in words): still remain significant growth
  T/C (%): 38.3%
[2]; [6]
  GI50: 10 to 100 nM
[4]; IV 3 mg/kg
  Cl_obs: 6.04 ± 0.63 mL/min/kg
[4]; whole blood, IV 3 mg/kg
  AUC(0-inf): 8340 ± 890 ng·h/mL
  AUC(0-t): 8310 ± 892 ng·h/mL
  Vd: 1.81 ± 0.26 L/kg
  half-life: 3.45 ± 0.24 h
[4]; [7]
  bioavailability: 10.1 ± 4%
[4]; [8]
  AUC(0-inf): 2810 ± 1110 ng·h/mL
  AUC(0-t): 2790 ± 1110 ng·h/mL
  Cmax: 246 ± 76 ng/mL
  Tmax: 4.33 ± 2.52 h
  half-life: 3.6 ± 0.37 h
